Experimental findings from US20250109135A1, “NOVEL ISOINDOLINONE DERIVATIVE COMPOUNDS AS CASPASE INHIBITORS” (INNOVO THERAPEUTICS INC., priority 2022, published 2025) are described below.

Assay [1] deals with Secreted IL-1β in THP-1 cells. As to the kind of experiment: Interleukin-1β inhibitory activity in human monocytic cells THP-1 (ELISA). The format is cell-based. To be noted: compound 100 nM, PMA-differentiated THP-1, LPS 10 μg/ml then 5 mM ATP, 24 h. On the procedure:
Caspase-1 is known as […] (ICE). Activated Caspase-1 is involved in the cleavage of pro-form IL-1β to produce the mature form, which is then secreted to induce inflammation. Therefore, the compounds identified in Experimental example 1 were tested to determine if their Caspase-1 inhibitory activity affected the production of […].
THP-1 (ATCC) cells were cultured in RPMI 1640 (Hyclone) growth medium comprising 10% Fetal bovine serum (FBS, Gibco) and antibiotics (100 U/ml Penicillin, 0.1 mg/ml Streptomycin, Cytiva) under 37° C., 5% CO2 conditions. Cultured THP-1 cells were seeded in growth medium to a concentration of 3×10^5 cells/well in 24-well plates (Celvest) and then treated with 1 μM Phorbol 12-myristate 13-acetate (PMA) (Sigma) for 24 hours to induce differentiation. Differentiated THP-1 were pre treated with 10 μg/ml Lipopolysaccharide (LPS, from E. coli 0111:B4 (InvivoGen)) in serum free RPMI 1640 medium for 24 hours to induce an inflammatory response. After removal of LPS, the compounds were pretreated for 1 h at a concentration of 100 nM using the same medium, followed by the addition of 5 mM ATP (InvivoGen) and incubation for 24 h in an incubator. The treated medium was collected and centrifuged, and IL-1β was quantified using an Enzyme linked immunoassay kit (ELISA kit, R&D system), and absorbance was measured at 450 nm using a CLARIOstar Plus spectrometer. Inhibitory activity was denoted as a if it was 50% or more, b if it was 30% or more but less than 50%, c if it was 10% or more but less than 30%, and d if it was less than 10%.
A general note: In an ELISA, binding on a coated surface is turned into a signal by an enzyme label.

The subject of a further assay is Jurkat cells. As to the kind of experiment: Apoptosis inhibition activity in human T-lymphocyte cells Jurkat (anti-FAS antibody, intracellular ATP). In kind it is cell-based. The conditions noted are these: compound 50 nM, 1 μg/ml anti-FAS antibody 24 h, ATP luminescence. How it is done: To evaluate the effect of the compound of the present invention on apoptosis, Jurkat (ATCC) cells were treated with anti-FAS antibody CH-11 (Merck) to induce apoptosis via the Fas (CD95) receptor, which was assessed by the amount of intracellular ATP.
Jurkat cells were cultured in RPMI 1640 growth medium comprising 10% FBS and antibiotics (100 U/ml Penicillin, 0.1 mg/ml Streptomycin) under 37° C., 5% CO2 conditions. Cultured cells were seeded in growth medium to a concentration of 8×10^4 cells/well in 96-well plates (SPL), pretreated with compound at a concentration of 50 nM for 1 hour, and then treated with 1 μg/ml anti-FAS antibody for 24 hours in an incubator. After 24 h, an ATP lite Luminescence assay kit (PerkinElmer) was used to measure ATP and luminescence was measured at 580 nm using a CLARIOstar Plus spectrometer. If the inhibitory activity is 30% or more, it is denoted as a′, if it is 20% or more but less than 30%, it is denoted as b′, if it is 10% or more but less than 20%, it is denoted as c′, and if it is less than 10%, it is denoted as d′.

Assay [2] concerns the target T1, recombinant human Caspase-1 (Homo sapiens, UniProt P29466).
T1 construct: purchased Enzo life science
T1 sequence (P29466 120-297 limits assumed): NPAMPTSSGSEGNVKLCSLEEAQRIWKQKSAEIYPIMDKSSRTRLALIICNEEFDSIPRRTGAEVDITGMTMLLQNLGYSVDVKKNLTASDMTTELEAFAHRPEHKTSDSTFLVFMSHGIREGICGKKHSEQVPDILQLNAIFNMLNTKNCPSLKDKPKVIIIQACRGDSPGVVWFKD
T1 sequence (P29466 317-404 limits assumed): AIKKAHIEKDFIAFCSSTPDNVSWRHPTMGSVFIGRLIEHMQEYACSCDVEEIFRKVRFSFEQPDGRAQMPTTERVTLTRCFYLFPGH
In words: Caspase-1 inhibitory activity, fluorescent substrate Ac-YVAD-AFC. The format is biochemical. How it is done:
To determine the Caspase-1 inhibitory activity of the compounds of the present invention prepared in Example, Caspase-1 activity was measured using a substrate with a fluorescent dye attached to it. […] The compound was dissolved in DMSO and stored at −20° C. Enzymatic reactions were carried out in a buffer comprising 50 mM HEPES (pH 8.0), 50 mM KCl, 200 mM NaCl, 10 mM DTT, 0.1% CHAPS (w/v). Enzyme inactivation was measured in the presence of different concentrations of the compound using the fluorescent substrate N-Acetyl-Tyr-Val-Ala-Asp-7-amido-4-trifluoromethylcoumarin (Ac-YVAD-AFC) (Sigma) at a concentration of 50 μM and 1 unit of recombinant human Caspase-1 (Enzo life science). A CLARIOstar Plus spectrometer (BMG Labtech) was used to measure the reaction rate as a function of time in the 400/505 nm (Ex/Em) wavelength band. […] If kobs/[I] is 20 or more, it is denoted as A, if it is 10 or more but less than 20, it is denoted as B, if it is 1 or more but less than 10, it is denoted as C, and if it is less than 1, it is denoted as D.
In the above equation, At means the enzyme reaction rate at time t (min), and Amax means the maximum reaction rate.

Setting [3] is: pH 8, 1 unit recombinant human Caspase-1, 50 μM Ac-YVAD-AFC, read-out: kobs/[I] Caspase-1.
Where [4] appears, read: pH 8, read-out: kobs/[I] Caspase-1.

The structures appear in SMILES notation. Read-outs that look alike come from different tables or passages of the source.

For orientation: inhibition means the drop in the measured response relative to a control, in per cent. A low value points to a weak effect.

In turn, `CCC(C(=O)NC(CC(=O)O)C(=O)CF)N1Cc2ccc(-c3ccc4ncccc4c3)cc2C1=O` (stereo not drawn) [Compound 30, 5-fluoro-4-oxo-3-(2-(1-oxo-6-(quinolin-6-yl)isoindolin-2-yl)butanamido)pentanoic acid] came in with an inhibition at 0.1 µM in assay [1] of less than 10%. The compound also displayed an inhibition at 0.05 µM with Jurkat cells of less than 10%. Moreover, the kinact/KI in assay [2] (setting [3]) fell in the range of 0.167 to 0.333 M⁻¹ s⁻¹.
In assay [1], `CC(C)[C@@H](C(=O)NC(CC(=O)O)C(=O)CF)N1Cc2ccc(-c3ccc4[nH]c(=O)[nH]c4c3)cc2C1=O` (stereo partly drawn) [Compound 45, 5-fluoro-3-((S)-3-methyl-2-(1-oxo-6-(2-oxo-2,3-dihydro-1H-benzo[d]imidazol-5-yl)isoindolin-2-yl)butanamido)-4-oxopentanoic acid] gave an inhibition at 0.1 µM of 30 to 50%. Moreover, the inhibition at 0.05 µM in the assay with Jurkat cells was in the range of 10 to 20%. The kinact/KI in assay [2] (setting [4]) lay in the range of 0.0167 to 0.167 M⁻¹ s⁻¹.
As for `CC[C@@H](C(=O)N[C@@H](CC(=O)O)C(=O)COc1c(F)c(F)cc(F)c1F)N1Cc2ccc(-c3ccc4c(c3)OCCO4)cc2C1=O` [Compound 51, (S)-3-((S)-2-(6-(2,3-di hydrobenzo[b][1,4]dioxin-6-yl)-1-oxoisoindolin-2-yl)butanamido)-4-oxo-5-(2,3,5,6-tetrafluorophenoxy)pentanoic], the inhibition at 0.1 µM in assay [1] is 30 to 50%. For the same compound, the inhibition at 0.05 µM in the assay with Jurkat cells fell in the range of 20 to 30%. In addition, in assay [2] (setting [3]), the kinact/KI fell in the range of 0.167 to 0.333 M⁻¹ s⁻¹.
For `CCC(C(=O)NC(CC(=O)O)C(=O)CF)N1Cc2ccc(-c3cccnc3)cc2C1=O` (stereo not drawn) [Compound 4, 5-fluoro-4-oxo-3-(2-(1-oxo-6-(pyridin-3-yl)isoindolin-2-yl)butanamido)pentanoic acid] the same measures were 30 to 50%, 10 to 20% and 0.0167 to 0.167 M⁻¹ s⁻¹.
`CC[C@@H](C(=O)N[C@@H](CC(=O)O)C(=O)COc1c(F)c(F)cc(F)c1F)N1Cc2ccc(-c3ccc4[nH]c(=O)[nH]c4c3)cc2C1=O` [Compound 52, (S)-4-oxo-3-((S)-2-(1-oxo-6-(2-oxo-2,3-dihydro-1H-benzo[d]imidazol-5-yl)isoindolin-2-yl)butanamido)-5-(2,3,5,6-tetrafluorophenoxy)pentanoic acid] had an inhibition at 0.1 µM in assay [1] of 10 to 30%. In the assay with Jurkat cells, the inhibition at 0.05 µM was in the range of 10 to 20%. The kinact/KI in assay [2] (setting [4]) was more than 0.333 M⁻¹ s⁻¹.
Consider `CCC(C(=O)NC(CC(=O)O)C(=O)CF)N1Cc2ccc(-c3ccc4occc4c3)cc2C1=O` (stereo not drawn) [Compound 26, 3-(2-(6-(benzofuran-5-yl)-1-oxoisoindolin-2-yl)butanamido)-5-fluoro-4-oxopentanoic acid], for which, in assay [1], the inhibition at 0.1 µM lay within 30 to 50%. In addition, the inhibition at 0.05 µM in the assay with Jurkat cells is not below 30%. The kinact/KI in assay [2] (setting [3]) fell in the range of 0.0167 to 0.167 M⁻¹ s⁻¹.
Compound `O=C(O)CC(NC(=O)CN1Cc2ccc(-c3ccc4[nH]c(=O)[nH]c4c3)cc2C1=O)C(=O)CF` (stereo not drawn) [Compound 38, 5-fluoro-4-oxo-3-(2-(1-oxo-6-(2-oxo-2,3-dihydro-1H-benzo[d]imidazol-5-yl)isoindolin-2-yl)acetamido)pentanoic acid] gave an inhibition at 0.1 µM in assay [1] of less than 10%. Further, the inhibition at 0.05 µM in the assay on Jurkat cells was less than 10%. The kinact/KI in assay [2] (setting [4]) is less than 0.0167 M⁻¹ s⁻¹.
`CCC(C(=O)NC(CC(=O)O)C(=O)CF)N1Cc2ccc(-c3cn[nH]c3)cc2C1=O` (stereo not drawn) [Compound 5, 5-fluoro-4-oxo-3-(2-(1-oxo-6-(1H-pyrazol-4-yl)isoindolin-2-yl)butanamido)pentanoic acid] came in with an inhibition at 0.1 µM in assay [1] of 30 to 50%. In the assay on Jurkat cells, this compound gave an inhibition at 0.05 µM of 10 to 20%. Further, the kinact/KI in assay [2] (setting [3]) fell in the range of 0.0167 to 0.167 M⁻¹ s⁻¹.
For `CCC(C(=O)NC(CC(=O)O)C(=O)CF)N1Cc2ccc(-c3coc4ccccc34)cc2C1=O` (stereo not drawn) [Compound 22, 3-(2-(6-(benzofuran-3-yl)-1-oxoisoindolin-2-yl)butanamido)-5-fluoro-4-oxopentanoic acid] the same measures were 30 to 50%, 10 to 20% and more than 0.333 M⁻¹ s⁻¹.
The compound `CCC(C(=O)NC(CC(=O)O)C(=O)CF)N1Cc2ccc(-c3cnc4ccccc4c3)cc2C1=O` (stereo not drawn) [Compound 37, 5-fluoro-4-oxo-3-(2-(1-oxo-6-(quinolin-3-yl)isoindolin-2-yl)butanamido)pentanoic acid] came in with an inhibition at 0.1 µM in assay [1] of 10 to 30%. Also, the inhibition at 0.05 µM in the assay with Jurkat cells is less than 10%. Also, the kinact/KI in assay [2] (setting [4]) lay within 0.0167 to 0.167 M⁻¹ s⁻¹.
Consider `CCC(C(=O)NC(CC(=O)O)C(=O)CF)N1Cc2ccc(-c3ccc4[nH]c(=O)[nH]c4c3)cc2C1=O` (stereo not drawn) [Compound 8, 5-fluoro-4-oxo-3-(2-(1-oxo-6-(2-oxo-2,3-dihydro-1H-benzo[d]imidazol-5-yl)isoindolin-2-yl)butanamido)pentanoic acid], for which, in assay [1], the inhibition at 0.1 µM was not below 50%. Further, in the assay on Jurkat cells, the inhibition at 0.05 µM lay within 10 to 20%. Further, the kinact/KI in assay [2] (setting [3]) is 0.0167 to 0.167 M⁻¹ s⁻¹.
For the compound `CCC(C(=O)NC(CC(=O)O)C(=O)CF)N1Cc2ccc(-c3csc4ccccc34)cc2C1=O` (stereo not drawn) [Compound 16, 3-(2-(6-(benzo[b]thiophen-3-yl)-1-oxoisoindolin-2-yl)butanamido)-5-fluoro-4-oxopentanoic acid], the inhibition at 0.1 µM in assay [1] was not below 50%. Also, the inhibition at 0.05 µM in the assay with Jurkat cells was 20 to 30%. Also, the kinact/KI in assay [2] (setting [4]) is more than 0.333 M⁻¹ s⁻¹.
`CCC(C(=O)NC(CC(=O)O)C(=O)CF)N1Cc2ccc(N3CCCC3)cc2C1=O` (stereo not drawn) [Compound 3, 5-fluoro-4-oxo-3-(2-(1-oxo-6-(pyrrolidin-1-yl)isoindolin-2-yl)butanamido)pentanoic acid] displayed an inhibition at 0.1 µM in assay [1] of 30 to 50%. The same compound had an inhibition at 0.05 µM in the assay with Jurkat cells of 20 to 30%. In assay [2] (setting [3]), the kinact/KI fell in the range of 0.0167 to 0.167 M⁻¹ s⁻¹.
The corresponding values for `CC(C)[C@@H](C(=O)NC(CC(=O)O)C(=O)CF)N1Cc2ccc(-c3ccc4c(c3)OCCO4)cc2C1=O` (stereo partly drawn) [Compound 42, 3-((S)-2-(6-(2,3-dihydrobenzo[b][1,4]dioxin-6-yl)-1-oxoisoindolin-2-yl)-3-methylbutanamido)-5-fluoro-4-oxopentanoic acid] are 30 to 50%, not below 30% and 0.0167 to 0.167 M⁻¹ s⁻¹.
The compound `O=C(O)CC(NC(=O)CN1Cc2ccc(-c3coc4ccccc34)cc2C1=O)C(=O)CF` (stereo not drawn) [Compound 39, 3-(2-(6-(benzofuran-3-yl)-1-oxoisoindolin-2-yl)acetamido)-5-fluoro-4-oxopentanoic acid] came in with an inhibition at 0.1 µM in assay [1] of less than 10%. Moreover, in the assay on Jurkat cells, the inhibition at 0.05 µM was less than 10%. In assay [2] (setting [4]), the kinact/KI lay within 0.0167 to 0.167 M⁻¹ s⁻¹.
Consider `O=C(O)CC(NC(=O)CN1Cc2ccc(-c3ccc4occc4c3)cc2C1=O)C(=O)CF` (stereo not drawn) [Compound 41, 3-(2-(6-(benzofuran-5-yl)-1-oxoisoindolin-2-yl)acetamido)-5-fluoro-4-oxopentanoic acid], for which, in assay [1], the inhibition at 0.1 µM was less than 10%. Also, the inhibition at 0.05 µM in the assay on Jurkat cells was less than 10%. Moreover, the kinact/KI in assay [2] (setting [4]) lay within 0.0167 to 0.167 M⁻¹ s⁻¹.
